In data set [1] the target is JAK2 (Homo sapiens (Human), UniProt O60674). In words: Biochemical kinase assay (33P-ATP filter-binding), JAK2. The text has this:
(§1) Biochemical Kinase Assay Protocol (JAK)
(§2) Reaction Procedure: • 1. […] Detected kinase activity by filter-binding method.

Data set [2] addresses JAK1 (Homo sapiens (Human), UniProt P23458). The data set can be described thus: Biochemical kinase assay (33P-ATP filter-binding), JAK1.
Text: as §1, §2

Data set [3] can be described thus: Dog LM (liver microsome) assay. Type of data set: in vitro ADME. To be noted: Table 3a; predicted clearance as percent of liver blood flow, 1 μM, 1 mg/ml microsomal protein. The protocol:
Dog LM (Liver Microsome) Assay
The metabolic degradation of the test compound is assayed at 37° C. with pooled liver microsomes from dogs (Beagle). The final incubation volume of 100 μl per time point contains TRIS buffer pH 7.6 at RT (0.1 M), magnesium chloride (5 mM), microsomal protein (1 mg/ml) and the test compound at a final concentration of 1 μM. Following a short preincubation period at 37° C., the reactions were initiated by addition of beta-nicotinamide adenine dinucleotide phosphate, reduced form (NADPH, 1 mM) and terminated by transferring an aliquot into solvent after different time points. Additionally, the NADPH-independent degradation was monitored in incubations without NADPH, terminated at the last time point. The [%] remaining test compound after NADPH independent incubation is reflected by the parameter c (control) (metabolic stability). The quenched incubations are pelleted by centrifugation (10000 g, 5 min). An aliquot of the supernatant is assayed by LC-MS/MS for the amount of parent compound. The half-life (t½ INVITRO) is determined by the slope of the semilogarithmic plot of the concentration-time profile. The intrinsic clearance (CL_[…]) is calculated by considering the amount of protein in the incubation: CL_[…] [μl/min/mg protein]=(Ln 2/(half-life [min]*protein content [mg/ml]))*1000. For better across species comparison the predicted clearance is expressed as percent of the liver blood flow [% QH] in the individual species. In general, high stability (corresponding to low % QH) of the compounds across species is desired.

Each structure is given as a SMILES string. Like-named read-outs stand apart in the source and are kept apart here.

Chain of JAK1 (P23458 whole entry, species assumed): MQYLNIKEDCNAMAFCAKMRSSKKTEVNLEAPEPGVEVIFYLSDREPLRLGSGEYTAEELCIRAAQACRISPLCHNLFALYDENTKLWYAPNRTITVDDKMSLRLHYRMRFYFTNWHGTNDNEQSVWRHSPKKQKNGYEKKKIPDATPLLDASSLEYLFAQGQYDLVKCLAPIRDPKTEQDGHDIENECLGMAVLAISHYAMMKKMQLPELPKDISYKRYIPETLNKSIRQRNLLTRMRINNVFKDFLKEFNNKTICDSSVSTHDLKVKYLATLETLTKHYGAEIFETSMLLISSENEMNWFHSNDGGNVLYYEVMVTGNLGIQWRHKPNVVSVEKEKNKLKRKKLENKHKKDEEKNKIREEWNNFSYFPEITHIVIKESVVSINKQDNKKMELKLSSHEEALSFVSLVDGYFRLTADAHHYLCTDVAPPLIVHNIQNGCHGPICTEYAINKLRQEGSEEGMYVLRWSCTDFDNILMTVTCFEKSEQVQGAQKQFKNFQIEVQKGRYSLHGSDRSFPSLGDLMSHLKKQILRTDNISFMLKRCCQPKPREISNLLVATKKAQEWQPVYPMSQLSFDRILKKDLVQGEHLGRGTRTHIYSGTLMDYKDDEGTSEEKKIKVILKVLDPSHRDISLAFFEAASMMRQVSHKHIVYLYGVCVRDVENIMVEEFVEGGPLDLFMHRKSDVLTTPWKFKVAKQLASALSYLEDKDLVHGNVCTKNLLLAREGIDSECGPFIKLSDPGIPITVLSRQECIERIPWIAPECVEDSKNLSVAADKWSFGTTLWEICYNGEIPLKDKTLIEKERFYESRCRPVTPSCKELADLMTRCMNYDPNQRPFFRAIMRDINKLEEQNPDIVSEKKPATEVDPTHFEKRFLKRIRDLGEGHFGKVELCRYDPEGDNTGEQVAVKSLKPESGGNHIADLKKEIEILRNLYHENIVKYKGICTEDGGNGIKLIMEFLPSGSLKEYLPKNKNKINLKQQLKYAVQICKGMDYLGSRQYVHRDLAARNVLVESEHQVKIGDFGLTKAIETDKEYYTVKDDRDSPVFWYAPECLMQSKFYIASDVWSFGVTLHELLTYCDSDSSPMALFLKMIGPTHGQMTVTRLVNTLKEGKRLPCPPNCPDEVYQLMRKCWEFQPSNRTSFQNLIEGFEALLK
Chain of JAK2 (O60674 whole entry, species assumed): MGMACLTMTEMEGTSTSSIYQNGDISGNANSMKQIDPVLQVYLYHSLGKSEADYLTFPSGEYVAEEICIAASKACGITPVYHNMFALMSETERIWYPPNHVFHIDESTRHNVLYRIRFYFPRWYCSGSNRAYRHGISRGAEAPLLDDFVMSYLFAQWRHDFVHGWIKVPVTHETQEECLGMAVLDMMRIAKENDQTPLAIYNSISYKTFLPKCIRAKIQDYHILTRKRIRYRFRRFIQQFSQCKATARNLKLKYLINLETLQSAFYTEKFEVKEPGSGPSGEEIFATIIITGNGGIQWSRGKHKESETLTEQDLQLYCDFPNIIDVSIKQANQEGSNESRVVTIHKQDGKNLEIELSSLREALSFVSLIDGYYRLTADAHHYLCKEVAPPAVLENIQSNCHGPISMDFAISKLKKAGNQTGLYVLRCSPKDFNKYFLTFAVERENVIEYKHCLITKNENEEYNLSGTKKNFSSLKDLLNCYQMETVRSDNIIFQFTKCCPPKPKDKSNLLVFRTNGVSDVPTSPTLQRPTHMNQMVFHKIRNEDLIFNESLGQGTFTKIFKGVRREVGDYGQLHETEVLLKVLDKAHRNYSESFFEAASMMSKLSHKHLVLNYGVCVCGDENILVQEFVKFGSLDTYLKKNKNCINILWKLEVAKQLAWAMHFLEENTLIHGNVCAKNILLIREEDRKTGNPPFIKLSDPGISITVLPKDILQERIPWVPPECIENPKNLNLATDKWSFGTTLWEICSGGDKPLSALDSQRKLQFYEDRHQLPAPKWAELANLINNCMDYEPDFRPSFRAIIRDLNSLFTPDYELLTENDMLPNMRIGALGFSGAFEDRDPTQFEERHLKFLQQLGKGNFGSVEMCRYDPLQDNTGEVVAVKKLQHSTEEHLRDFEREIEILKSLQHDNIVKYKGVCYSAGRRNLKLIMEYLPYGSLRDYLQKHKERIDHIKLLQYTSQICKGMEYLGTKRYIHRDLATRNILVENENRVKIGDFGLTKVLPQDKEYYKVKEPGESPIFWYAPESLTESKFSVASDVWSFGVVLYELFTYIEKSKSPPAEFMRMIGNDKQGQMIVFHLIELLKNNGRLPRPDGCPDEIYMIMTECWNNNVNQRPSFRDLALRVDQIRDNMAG

For `Cc1cc(Nc2ncc(Cl)c(NC3CCCCC3C#N)n2)cc2c1B(O)OC2` (stereo not drawn) [Example 024, 2-[[5-chloro-2-[(1-hydroxy-7-methyl-3H-2,1-benzoxaborol-5-yl)amino]pyrimidin-4-yl]amino]cyclohexanecarbonitrile], the IC50 is 11.2 nM in data set [1] (Table 3a, read-out: IC50 JAK2) and 5.9 nM in data set [2] (Table 3a, read-out: IC50 JAK1).

Consider `Cc1cnc(Nc2cc(F)c3c(c2)C=CB(O)O3)nc1N[C@@H]1COCC[C@H]1C#N` (single isomer, unassigned) [Example 036b, (trans)-3-((2-((8-fluoro-2-hydroxy-2H-benzo[e][1,2]oxaborinin-6-yl)amino)-5-methylpyrimidin-4-yl)amino)tetrahydro-2H-pyran-4-carbonitrile], for which the concentration for half-maximal inhibition (IC50) was determined as 102 nM in data set [1] (Table 3a, read-out: IC50 JAK2) and 8.2 nM in data set [2] (Table 3a, read-out: IC50 JAK1). Besides, the “Dog LM QH” value in data set [3] was 37.3%.

Regarding `N#C[C@@H]1CCC[C@H]1Nc1nc(Nc2cc(Cl)c3c(c2)COB3O)ncc1C(F)(F)F` (relative stereo) [Example 022, (trans)-2-[[2-[(7-chloro-1-hydroxy-3H-2,1-benzoxaborol-5-yl)amino]-5-(trifluoromethyl)pyrimidin-4-yl]amino]cyclopentanecarbonitrile], the IC50 in data set [1] (Table 3a, read-out: IC50 JAK2) came to 7.5 nM; in data set [2] (Table 3a, read-out: IC50 JAK1), 3.3 nM.

Turning to `Cc1cnc(Nc2ccc3c(c2)COB3O)nc1N[C@@H]1COCC[C@H]1C#N` (single isomer, unassigned) [Example 026b, (trans)-3-((2-((1-hydroxy-1,3-dihydrobenzo[c][1,2]oxaborol-5-yl)amino)-5-methylpyrimidin-4-yl)amino)tetrahydro-2H-pyran-4-carbonitrile], the IC50 in data set [1] (Table 3a, read-out: IC50 JAK2) amounted to 95.3 nM; in data set [2] (Table 3a, read-out: IC50 JAK1), 47.1 nM. Further, in data set [3], the “Dog LM QH” value is reported as below 19.9%.

On to `OB1OCc2cc(Nc3ncc(F)c(NC4CCCC4)n3)ccc21` [Example C013], for which the IC50 in data set [1] (Table 3b, comparator compounds, read-out: IC50 JAK2) stood at 705 nM; in data set [2] (Table 3b, comparator compounds, read-out: IC50 JAK1), 32.3 nM.

As for `Cc1cc(Nc2ncc(Cl)c(N[C@H]3COCC[C@@H]3C#N)n2)cc2c1B(O)OC2` (single isomer, unassigned) [Example 041b, (trans)-3-[[5-chloro-2-[(1-hydroxy-7-methyl-3H-2,1-benzoxaborol-5-yl)amino]pyrimidin-4-yl]amino]tetrahydropyran-4-carbonitrile], the IC50 in data set [1] (IC50 JAK2, Table 3a) was determined as 134 nM; in data set [2] (IC50 JAK1, Table 3a), 36.2 nM. In data set [3], the “Dog LM QH” value is on record as below 19.9%.

On to `N#C[C@@H]1CCOC[C@H]1Nc1nc(Nc2ccc3c(c2)COB3O)ncc1Cl` (relative stereo) [Example 047, (trans)-3-((5-chloro-2-((1-hydroxy-1,3-dihydrobenzo[c][1,2]oxaborol-5-yl)amino)pyrimidin-4-yl)amino)tetrahydro-2H-pyran-4-carbonitrile], for which the IC50 in data set [1] (Table 3a, read-out: IC50 JAK2) amounted to 7.6 nM; in data set [2] (Table 3a, read-out: IC50 JAK1) it was 0.34 nM.

Take `Cc1cnc(Nc2ccc3c(c2)C(C)OB3O)nc1NC1COCCC1C#N` (stereo not drawn) [Example 028, (trans)-3-[[2-[(1-hydroxy-3-methyl-3H-2,1-benzoxaborol-5-yl)amino]-5-methyl-pyrimidin-4-yl]amino]tetrahydropyran-4-carbonitrile]: the IC50 in data set [1] (Table 3a, read-out: IC50 JAK2) was 3.5 nM; in data set [2] (Table 3a, read-out: IC50 JAK1) it was 0.5 nM.

Turning to `Cc1cnc(Nc2cc(Cl)c3c(c2)COB3O)nc1N[C@H]1CCCC[C@@H]1C#N` (single isomer, unassigned) [Example 010b, (trans)-2-[[2-[(7-chloro-1-hydroxy-3H-2,1-benzoxaborol-5-yl)amino]-5-methyl-pyrimidin-4-yl]amino]cyclohexanecarbonitrile], the IC50 in data set [1] (Table 3a, read-out: IC50 JAK2) is 811 nM; in data set [2] (Table 3a, read-out: IC50 JAK1), 22.3 nM.

Regarding `Cc1cnc(Nc2cc(Cl)c3c(c2)COB3O)nc1N[C@@H]1COCC[C@H]1C#N` (single isomer, unassigned) [Example 031a, (trans)-3-((2-((7-chloro-1-hydroxy-1,3-dihydrobenzo[c][1,2]oxaborol-5-yl)amino)-5-methylpyrimidin-4-yl)amino)tetrahydro-2H-pyran-4-carbonitrile], the “Dog LM QH” value in data set [3] is recorded as below 19.9%.

In the case of `Cc1cnc(Nc2ccc3c(c2)C=CB(O)O3)nc1N[C@@H]1CCCC[C@H]1C#N` (relative stereo) [Example 015, (trans)-2-[[2-[(2-hydroxy-1,2-benzoxaborinin-6-yl)amino]-5-methyl-pyrimidin-4-yl]amino]cyclohexanecarbonitrile], the IC50 in data set [1] (Table 3a, read-out: IC50 JAK2) stood at 103 nM; in data set [2] (Table 3a, read-out: IC50 JAK1), 9 nM.

With `Cc1cnc(Nc2ccc3c(c2)C=CB(O)O3)nc1N[C@@H]1CCC[C@H]1C#N` (relative stereo) [Example 007, (trans)-2-((2-((2-hydroxy-2H-benzo[e][1,2]oxaborinin-6-yl)amino)-5-methylpyrimidin-4-yl)amino)cyclopentane-1-carbonitrile], the IC50 in data set [1] (Table 3a, read-out: IC50 JAK2) turned out to be 52.6 nM; in data set [2] (Table 3a, read-out: IC50 JAK1), 5.3 nM.

For the compound `N#C[C@@H]1CCCC[C@H]1Nc1nc(Nc2cc(Cl)c3c(c2)COB3O)ncc1C(F)(F)F` (relative stereo) [Example 021, (trans)-2-((2-((7-chloro-1-hydroxy-1,3-dihydrobenzo[c][1,2]oxaborol-5-yl)amino)-5-(trifluoromethyl)pyrimidin-4-yl)amino)cyclohexanecarbonitrile], the IC50 in data set [1] (Table 3a, read-out: IC50 JAK2) amounted to 3.2 nM; in data set [2] (Table 3a, read-out: IC50 JAK1), 2.7 nM.

As to `Cc1cnc(Nc2cc3c4c(c2)OCCOB4OC3)nc1NC1CCCCC1C#N` (stereo not drawn) [Example 013, (trans)-2-((2-((7,8-dihydro-2H-1,6,9-trioxa-9a-borabenzo[c,d]azulen-4-yl)amino)-5-methylpyrimidin-4-yl)amino)cyclohexane-1-carbonitrile], the IC50 in data set [1] (Table 3a, read-out: IC50 JAK2) was found to be 101 nM; in data set [2] (Table 3a, read-out: IC50 JAK1), 2.6 nM.

In the case of `N#C[C@@H]1CCOC[C@H]1Nc1nc(Nc2cc(Cl)c3c(c2)COB3O)ncc1Cl` (relative stereo) [Example 048, (trans)-3-[[5-chloro-2-[(7-chloro-1-hydroxy-3H-2,1-benzoxaborol-5-yl)amino]pyrimidin-4-yl]amino]tetrahydropyran-4-carbonitrile], the IC50 worked out at 15.6 nM in data set [1] (Table 3a, read-out: IC50 JAK2) and 0.6 nM in data set [2] (Table 3a, read-out: IC50 JAK1).

`N#C[C@@H]1CCCC[C@H]1Nc1nc(Nc2cc(Cl)c3c(c2)COB3O)ncc1Cl` (relative stereo) [Example 019, (trans)-2-((5-chloro-2-((7-chloro-1-hydroxy-1,3-dihydrobenzo[c][1,2]oxaborol-5-yl)amino)pyrimidin-4-yl)amino)cyclohexane-1-carbonitrile]: the IC50 in data set [1] (Table 3a, read-out: IC50 JAK2) came to 3.2 nM; in data set [2] (Table 3a, read-out: IC50 JAK1), 0.2 nM.

`N#C[C@@H]1CCOC[C@H]1Nc1nc(Nc2cc(Cl)c3c(c2)COB3O)ncc1F` (relative stereo) [Example 046, (trans)-3-((2-((7-chloro-1-hydroxy-1,3-dihydrobenzo[c][1,2]oxaborol-5-yl)amino)-5-fluoropyrimidin-4-yl)amino) tetrahydro-2H-pyran-4-carbonitrile]: the IC50 in data set [1] (Table 3a, read-out: IC50 JAK2) was found to be 186 nM; in data set [2] (Table 3a, read-out: IC50 JAK1), 3.4 nM.

Consider `N#C[C@@H]1CCCC[C@H]1Nc1nc(Nc2cc(Cl)c3c(c2)COB3O)ncc1F` (relative stereo) [Example 020, (trans)-2-[[2-[(7-chloro-1-hydroxy-3H-2,1-benzoxaborol-5-yl)amino]-5 fluoropyrimidin-4-yl]amino]cyclohexanecarbonitrile], for which the half-inhibitory concentration (IC50) came to 50.7 nM in data set [1] (Table 3a, read-out: IC50 JAK2) and 1.4 nM in data set [2] (Table 3a, read-out: IC50 JAK1).

On to `Cc1cnc(Nc2cc(C#N)c3c(c2)COB3O)nc1N[C@@H]1COCC[C@H]1C#N` (relative stereo) [Example 045, 5-((4-(((trans)-4-cyanotetrahydro-2H-pyran-3-yl)amino)-5-methylpyrimidin-2-yl)amino)-1-hydroxy-1,3-dihydrobenzo[c][1,2]oxaborole-7-carbonitrile], for which the IC50 in data set [1] (Table 3a, read-out: IC50 JAK2) turned out to be 10.6 nM; in data set [2] (Table 3a, read-out: IC50 JAK1), 0.5 nM.

Take `Cc1cnc(Nc2cc(Cl)c3c(c2)COB3O)nc1NC1CCCC[C@@H]1C#N` (single isomer, unassigned) [Example 010b, (trans)-2-[[2-[(7-chloro-1-hydroxy-3H-2,1-benzoxaborol-5-yl)amino]-5-methyl-pyrimidin-4-yl]amino]cyclohexanecarbonitrile]: the “Dog LM QH” value in data set [3] was below 19.9%.

With `Cc1cnc(Nc2cc3c4c(c2)OCCOB4OC3)nc1N[C@@H]1CCC[C@H]1C#N` (relative stereo) [Example 004, (trans)-2-((2-((7,8-dihydro-2H-1,6,9-trioxa-9a-borabenzo [cd]azulen-4-yl)amino)-5-methylpyrimidin-4-yl)amino)cyclopentane-1-carbonitrile], the IC50 in data set [1] (Table 3a, read-out: IC50 JAK2) is 49.7 nM; in data set [2] (Table 3a, read-out: IC50 JAK1), 1.6 nM.

On to `N#C[C@@H]1CCCC[C@H]1Nc1nc(Nc2cc(F)c3c(c2)COB3O)ncc1Cl` (relative stereo) [Example 023, (trans)-2-((5-chloro-2-((7 fluoro-1-hydroxy-1,3-dihydrobenzo[c][1,2]oxaborol-5-yl)amino)pyrimidin-4-yl)amino)cyclohexane-1-carbonitrile], for which the half-inhibitory concentration (IC50) in data set [1] (Table 3a, read-out: IC50 JAK2) worked out at 0.6 nM; in data set [2] (Table 3a, read-out: IC50 JAK1), 0.2 nM.

As a reminder, the IC50 is the point on the concentration scale where inhibition reaches its midpoint.

The values above are taken from US20240132525A1, “BORON […], CO[…], METHODS AND USES THEREOF” (priority 2022, published 2024).
